Measurements: US5827881A, “Diesters of carbonic acid endowed with antiviral and anti-inflammatory activity” (Italfarmaco S.P.A., priority 1994, dated 1998)
Read-outs that look alike come from different tables or passages of the source.

What was measured:
[1] = tested on: 8E51 Cells permanently infected with LAV (Lymphotropic Adenopathy Virus) and MOLT3 cells; assay: Antiviral activity: syncytia formation inhibition (8E51 cells infected with LAV co-incubated with MOLT3 cells); format: cell-based; settings: Homo sapiens, MOLT-3
Method: The antiviral activity of the compound of the invention was evaluated by the test of the syncytia formation inhibition, according to the procedure reported hereinbelow.
8E51 Cells permanently infected with LAV (Lymphotropic Adenopathy Virus) defective of the po1 gene, and MOLT3 cells (CD4+ human T-lymphoblastoid strain), cultured in RPMI 1640 medium with 10% calf fetal serum were co-incubated in a ratio of 1:2, at a concentration of 10^6 cells/ml, and put in 96-conic shaped bottom wells Microtiter plates. The cells were added with some compounds representative of the invention suitably diluted and, after 30 minutes at 37° C., the whole was centrifuged to obtain a sediment. The […] was incubated for further 2 hours at 37° C., then put in square-bottomed wells. The syncytia (10-100 times bigger than the starting cells) were counted with an optic microscope. In the controls about 100-200 syncytia/well could be seen.

[2] = tested on: human TNF (Tumor Necrosis Factor) citotoxicity on LM cells (murine fibroblast strain); assay: In vitro anti-inflammatory activity: inhibition of the citotoxicity induced by human TNF on a murine fibroblast strain (LM cells, MTT); format: cell-based; settings: Mus musculus; for inhibition at 10 µg/mL: compound 10 μg/ml; for inhibition at 100 µg/mL: compound 100 μg/ml
Method: In vitro anti-inflammatory activity
In a 96-square bottomed wells plate 15.000 LM cells (Rubin. B. Y. et al., J.Exp. Med., 162:1099, 1985) were inseminated each well (100 μl) in complete RPMI medium (Flow Lab., Hertz. GB). Each well was added with 50 μl of a solution of a compound to be tested at the due concentration, and 50 μl of a solution of TNF at the due concentration. After 2 days, each well was added with 40 μl of a solution of MTT [3-(4,5-dimethylthiazol-2-yl)-2,5-diphenyltetrazolium bromide], and the whole was incubated at 37° C. for 4 hours, then the content of the wells was sucked up, added with 200 μl/well of dimethylsulfoxide to dissolve the blue crystals of formazane formed because of the cell activity, then the optical density values were read by a reader with a 570 nm filter. […] The optical density values are directly proportional to the inhibitory activity performed by the compounds of the invention against TNF.

[3] = tested on: Carrageenan-induced oedema; assay: Carrageenan-induced oedema (acute inflammation); format: in vivo; settings: oral; for % of inhibition (reduction of the oedema), 1 hour: 1 hour after carrageenan; for % of inhibition (reduction of the oedema), 3 hours: 3 hours after carrageenan; for % of inhibition (reduction of the oedema), 5 hours: 5 hours after carrageenan
Method: In vivo anti-inflammatory activity: models of acute inflammation
A. Carrageenan-induced oedema The test is disclosed, inter alia, by Blake, D. R. et al., Ann. Rheum. Dis., 43, 89-93, 1983. The animals were orally administered with 10 or 30 mg/kg doses of the compounds of the invention 1 hour before the injection of carrageenan. The condition of the oedema was checked 1, 3 and 5 hours after said injection. In Table 3 the percentage of reduction of the oedema is set forth.

[4] = TNF 1 ng/ml, read-out: % of inhibition, TNF (1 ng/ml)
[5] = TNF 5 ng/ml, read-out: % of inhibition, TNF (5 ng/ml)

CCN(CC)CCCCCCOC(=O)OCCCCCCN(CC)CC [13, E]]
inhibition at 50 µM [1]: 27.5% | inhibition at 100 µM [1]: 43.5% | inhibition at 10 µg/mL [2, 4]: 55% | inhibition at 100 µg/mL [2, 4]: 45% | inhibition at 100 µg/mL [2, 5]: 21%

CCCCN1CCC(COC(=O)OCC2CCN(CCCC)CC2)CC1 [1, E]]
inhibition at 25 µM [1]: 56.5% | inhibition at 50 µM [1]: 70% | inhibition at 100 µM [1]: 79% | inhibition at 200 µM ([1]; 200 μM): 97% | inhibition at 10 µg/mL [2, 4]: 45%

O=C(OCCCN(Cc1ccccc1)Cc1ccccc1)OCCCN(Cc1ccccc1)Cc1ccccc1 [17, D]]
inhibition at 100 µM [1]: 19%

CCCCN(CCCC)CCCOC(=O)OCCCN(CCCC)CCCC [19, D]]
inhibition at 10 µg/mL [2, 4]: 17% | inhibition at 100 µg/mL [2, 4]: 48%

CCCCN(CCCC)[C@@H]1CCCC[C@H]1OC(=O)OCC1CCCN(C)C1 (stereo partly drawn) [5, C]]
inhibition at 50 µM [1]: 22% | inhibition at 100 µM [1]: 23% | inhibition at 10 µg/mL [2, 4]: 73% | inhibition at 100 µg/mL [2, 4]: 36% | inhibition at 10 µg/mL [2, 5]: 21% | inhibition at 100 µg/mL [2, 5]: 30%

CCCCN(CCCC)[C@@H]1CCCC[C@H]1OC(=O)OCc1cccnc1 (relative stereo) [4, C]]
inhibition at 50 µM [1]: 18% | inhibition at 100 µM [1]: 28% | inhibition at 100 µg/mL [2, 4]: 23%

CN(CCCOC(=O)OCCCN(C)Cc1ccccc1)Cc1ccccc1 [16, D]]
inhibition at 100 µM [1]: 27% | inhibition at 100 µg/mL [2, 5]: 21%

CCCCN(CCCC)CCCC(C)OC(=O)OC(C)CCCN(CCCC)CCCC (stereo not drawn) [10, C]]
inhibition at 25 µM [1]: 29.5% | inhibition at 50 µM [1]: 45.5% | inhibition at 10 µg/mL [2, 4]: 100% | inhibition at 100 µg/mL [2, 4]: 100% | inhibition at 10 µg/mL [2, 5]: 73% | inhibition at 100 µg/mL [2, 5]: 95% | % of inhibition (reduction of the oedema), 1 hour ([3]; 10 mg/kg): 26.1% | % of inhibition (reduction of the oedema), 3 hours ([3]; 10 mg/kg): 10% | % of inhibition (reduction of the oedema), 1 hour ([3]; 30 mg/kg): 13% | % of inhibition (reduction of the oedema), 3 hours ([3]; 30 mg/kg): 43% | % of inhibition (reduction of the oedema), 5 hours ([3]; 30 mg/kg): 31.3%

CCCCN(CCCC)CCCCCOC(=O)OCCCCCN(CCCC)CCCC [14, E]]
inhibition at 100 µg/mL [2, 4]: 100% | inhibition at 100 µg/mL [2, 5]: 59%

CCCCN(CCCC)CCCOC(=O)OC(C)CCCN(CCCC)CCCC (stereo not drawn) [12, B]]
inhibition at 10 µg/mL [2, 4]: 68% | inhibition at 100 µg/mL [2, 4]: 65% | inhibition at 10 µg/mL [2, 5]: 50% | inhibition at 100 µg/mL [2, 5]: 62%

CCCCN(CCCC)CCCC(CC)OC(=O)OC(CC)CCCN(CCCC)CCCC (stereo not drawn) [38, E]]
% of inhibition (reduction of the oedema), 1 hour ([3]; 10 mg/kg): 22.5% | % of inhibition (reduction of the oedema), 3 hours ([3]; 10 mg/kg): 15% | % of inhibition (reduction of the oedema), 5 hours ([3]; 10 mg/kg): 20.5%

CCCCN(CCCC)CCC(C)OC(=O)OC(C)CCN(CCCC)CCCC (stereo not drawn) [8, D]]
inhibition at 12.5 µM ([1]; 12.5 μM): 33% | inhibition at 25 µM [1]: 49% | inhibition at 50 µM [1]: 55% | inhibition at 100 µM [1]: 27% | inhibition at 10 µg/mL [2, 4]: 100% | inhibition at 100 µg/mL [2, 4]: 100% | inhibition at 10 µg/mL [2, 5]: 56% | inhibition at 100 µg/mL [2, 5]: 82%

CC(C)N(CCCCOC(=O)OCCCCN(C(C)C)C(C)C)C(C)C [18, D]]
inhibition at 50 µM [1]: 55% | inhibition at 100 µM [1]: 63% | inhibition at 100 µg/mL [2, 4]: 17% | % of inhibition (reduction of the oedema), 3 hours ([3]; 30 mg/kg): 27% | % of inhibition (reduction of the oedema), 5 hours ([3]; 30 mg/kg): 28.7%
